# Data published in US12146004B2, “Polymyxin compounds and uses thereof” (priority 2014, dated 2024).
# Numbered stars: 1 amine (or outer) side, 2 acyl side, 3 side chain; on linkers, the order of the positions; unused ones are H or OH. Bridge positions count the residues as written; N and C are the ends. Square brackets hold non-standard residues; d marks the D form. Peptide text beside a SMILES is read from it. * marks the point of attachment. ξ: configuration not given here. X11 = O=C([C@@H](Cc1ccc(-c2ccncc2)cc1)N[*:1])[*:2]; dBip = N[C@H](Cc1ccc(-c2ccccc2)cc1)C(=O)O; Octanoyl(6-Me) = CCC(C)CCCCC(=O)*; X3 = CCCCCCCCN1CCNC[C@H]1C(=O)*; dCha = N[C@H](CC1CCCCC1)C(=O)O; Thr(3ξ) = CC(O)[C@H](N)C(=O)O; Dab = NCC[C@H](N)C(=O)O; X2 = CC(C)CC(CN)C(=O)*
# Tests used:
# Assay type in all cases: cell-based
# Acinetobacter baumannii = tested on: Acinetobacter baumannii
# How it was run: (§1)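 In vitro susceptibility was determined across up to nine strains of each pathogen, some resistant. Potency is given as MIC, μg/mL.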
# Klebsiella pneumoniae = tested on: Klebsiella pneumoniae
# How it was run: as §1
# Escherichia coli = tested on: Escherichia coli
# How it was run: as §1
# Pseudomonas aeruginosa = tested on: Pseudomonas aeruginosa
# How it was run: as §1
# HK-2 cells = tested on: HK-2 cells
# Text: Values are reported relative to Polymyxin B.
SMILES,MIC A. baumanii 053 (Acinetobacter baumannii) [µg/mL],MIC A. baumanii 056 (Acinetobacter baumannii) [µg/mL],MIC A. baumanii ATCC BAA-747 (Acinetobacter baumannii) [µg/mL],MIC K. pneumoniae 062 (Klebsiella pneumoniae) [µg/mL],MIC K. pneumoniae 063 (Klebsiella pneumoniae) [µg/mL],MIC K. pneumoniae 064 (Klebsiella pneumoniae) [µg/mL],MIC K. pneumoniae 066 (Klebsiella pneumoniae) [µg/mL],MIC K. pneumoniae 067 (Klebsiella pneumoniae) [µg/mL],MIC K. pneumoniae ATCC 4352 (Klebsiella pneumoniae) [µg/mL],MIC E. coli 060 (Escherichia coli) [µg/mL],MIC E. coli 061 (Escherichia coli) [µg/mL],MIC E. coli ATCC 25922 (Escherichia coli) [µg/mL],MIC P. aeruginosa 068 (Pseudomonas aeruginosa) [µg/mL],MIC P. aeruginosa 070 (Pseudomonas aeruginosa) [µg/mL],MIC P. aeruginosa ATCC 27853 (Pseudomonas aeruginosa) [µg/mL],HK-2 IC50 (HK-2 cells) [µg/mL],MIC K. pneumoniae 065 (Klebsiella pneumoniae) [µg/mL],MIC E. coli 058 (Escherichia coli) [µg/mL],MIC E. coli 059 (Escherichia coli) [µg/mL]
CCC(C)CCCCC(=O)N[C@@H](CCN)C(=O)N[C@H](C(=O)N[C@@H](CCN)C(=O)N[C@H]1CCNC(=O)[C@H]([C@@H](C)O)NC(=O)[C@H](CCN)NC(=O)[C@H](CCN)NC(=O)[C@H](CC(C)C)NC(=O)[C@@H](Cc2ccc(-c3ccncc3)cc2)NC(=O)[C@H](CCN)NC1=O)C(C)O (stereo partly shown) [Example 1] ({Octanoyl(6-Me)}-[Dab][Thr(3ξ)][Dab][Dab][Dab][X11]L[Dab][Dab]T; lactam 4-C),>32,>32,1,>64,>64,32,32,>32,1,8,32,1,32,>32,1,7,,,
CCCCCCCCN1CCNC[C@H]1C(=O)N[C@H](C(=O)N[C@@H](CCN)C(=O)N[C@H]1CCNC(=O)[C@H]([C@@H](C)O)NC(=O)[C@H](CCN)NC(=O)[C@H](CCN)NC(=O)[C@H](CC(C)C)NC(=O)[C@@H](Cc2ccc(-c3ccccc3)cc2)NC(=O)[C@H](CCN)NC1=O)C(C)O (stereo partly shown) [Example 6] (X3-[Thr(3ξ)][Dab][Dab][Dab][dBip]L[Dab][Dab]T; lactam 3-C),8,4,1,4,4,2,0.5,4,1,1,2,1,2,2,,3,1,1,0.5
CC(C)CC(CN)C(=O)N[C@H](C(=O)N[C@@H](CCN)C(=O)N[C@H]1CCNC(=O)[C@H]([C@@H](C)O)NC(=O)[C@H](CCN)NC(=O)[C@H](CCN)NC(=O)[C@H](CC(C)C)NC(=O)[C@@H](CC2CCCCC2)NC(=O)[C@H](CCN)NC1=O)C(C)O (stereo partly shown) [Example 21] (X2-[Thr(3ξ)][Dab][Dab][Dab][dCha]L[Dab][Dab]T; lactam 3-C),>64,64,0.5,16,64,8,16,>64,0.25,8,32,0.25,32,32,0.5,83,,8,16
